Measurements reported in patent US10532106B2 (priority 2014, dated 2020).
Read-outs that look alike come from different tables or passages of the source. Numbered stars: 1 amine (or outer) side, 2 acyl side, 3 side chain; on linkers, the order of the positions; unused ones are H or OH. Bridge positions count the residues as written; N and C are the ends. Square brackets hold non-standard residues; d marks the D form. Peptide text beside a SMILES is read from it. Phe(4-Br) = N[C@@H](Cc1ccc(Br)cc1)C(=O)O; 1Nal = N[C@@H](Cc1cccc2ccccc12)C(=O)O; 2Nal = N[C@@H](Cc1ccc2ccccc2c1)C(=O)O; TBMB = c1c(C[*:1])cc(C[*:3])cc1C[*:2]; Cha = N[C@@H](CC1CCCCC1)C(=O)O; Tle = CC(C)(C)[C@H](N)C(=O)O

Molecular target: T1, MT1-MMP hemopexin domain (Homo sapiens, UniProt P50281)
T1 construct: residues Cys319-Gly511 from the human gene; His6 (N); made in house; host or cells: HEK293 (transient), pEXPR-IBA42 vector
Experiment: Competition assay using fluorescence polarisation
Type: binding
Details: for Kd: read-out: Kd
Excerpt: Here, a pre-formed complex of PEX with the fluorescent PEX-binding tracer is titrated with free, non-fluoresceinated bicyclic peptide. Since all 17-69-based peptides are expected to bind at the same site, the titrant will displace the fluorescent tracer from PEX. Dissociation of the complex can be measured quantitatively, and the Kd of the competitor (titrant) to the target protein determined. The advantage of the competition method is that the affinities of non-fluoresceinated bicyclic peptides can be determined accurately and rapidly.
Subsequently, the non-fluorescent competitor bicyclic peptide (usually just the bicycle core sequence) is titrated, such that it displaces the fluorescent tracer from the target protein. The displacement of the tracer is measured and associated with a drop in fluorescence polarisation. The drop in fluorescence polarisation is proportional to the fraction of target protein bound with the non-fluorescent titrant, and thus is a measure of the affinity of titrant to target protein.
The raw data is fit to the analytical solution of the cubic equation that describes the equilibria between fluorescent tracer, titrant, and binding protein. The fit requires the value of the affinity of fluorescent tracer to the target protein, which can be determined separately by direct binding FP experiments (see previous section).

[1] = Table 9, tolerated substitutions at positions 9 and 11
[2] = Table 8, substitutions at position 4
[3] = Table 2, FP method Competition, tracer A-(17-69-07)-A-Sar6-K(Fluorescein)

For `CC(=O)N[C@H]1CSCc2cc3cc(c2)CSC[C@H](NC(=O)CNC(=O)[C@H](Cc2ccccc2)NC(=O)[C@H](CCC(=O)O)NC(=O)[C@H](CC(N)=O)NC(=O)[C@H](Cc2ccc(O)cc2)NC1=O)C(=O)N[C@@H](CCC(=O)O)C(=O)N[C@@H](CC(=O)O)C(=O)N[C@@H](Cc1ccccc1)C(=O)N[C@@H](Cc1ccc(O)cc1)C(=O)N[C@@H](CC(=O)O)C(=O)N[C@@H](C(C)(C)C)C(=O)N[C@H](C(N)=O)CSC3` [17-69-07-N100, Ac-(17-69-07) tBuGly11] (Ac-CYNEFGCEDFYD[Tle]C-NH2; linker 1-7-14 via TBMB), the Kd [1] was 1.56 ± 1.14 nM.

Compound `CC[C@H](C)[C@@H]1NC(=O)[C@H](CC(=O)O)NC(=O)[C@H](Cc2ccc(O)cc2)NC(=O)[C@H](Cc2ccccc2)NC(=O)[C@H](CC(=O)O)NC(=O)[C@H](CCC(=O)O)NC(=O)[C@@H]2CSCc3cc(cc(c3)CSC[C@H](NC(C)=O)C(=O)N[C@@H](Cc3ccc(O)cc3)C(=O)N[C@@H](CC(N)=O)C(=O)N[C@@H](CCC(=O)O)C(=O)N[C@@H](Cc3ccccc3)C(=O)N[C@H](CCCNC(=N)N)C(=O)N2)CSC[C@@H](C(N)=O)NC1=O` [17-69-07-N120, Ac-(17-69-07) D-Arg5] (Ac-CYNEF[dR]CEDFYDIC-NH2; linker 1-7-14 via TBMB) has a Kd (Table 7, substitutions at position 5) of 4.24 ± 1.48 nM.

For `CC[C@H](C)[C@@H]1NC(=O)[C@H](CC(=O)O)NC(=O)[C@H](Cc2ccc(O)cc2)NC(=O)[C@H](Cc2ccccc2)NC(=O)[C@H](CC(=O)O)NC(=O)[C@H](CCC(=O)O)NC(=O)[C@@H]2CSCc3cc(cc(c3)CSC[C@H](NC(=O)[C@H](C)NC(=O)CN3CCN(CC(=O)O)CCN(CC(=O)O)CCN(CC(=O)O)CC3)C(=O)N[C@@H](Cc3ccc(O)cc3)C(=O)N[C@@H](CC(N)=O)C(=O)N[C@@H](CCC(=O)O)C(=O)N[C@@H](Cc3ccccc3)C(=O)NCC(=O)N2)CSC[C@@H](C(N)=O)NC1=O` [17-69-07-N144, DOTA-A-(17-69-07)], the “potency / activity toward MT1-MMP, in words” value was “retains full potency to MT1-MMP” and the Kd (Table 15, DOTA-linked peptides) was 0.5 nM.

Work on `CC[C@H](C)[C@@H]1NC(=O)[C@H](CC(=O)O)NC(=O)[C@H](Cc2ccc(O)cc2)NC(=O)[C@H](Cc2ccccc2)NC(=O)[C@H](CC(=O)O)NC(=O)[C@H](CCC(=O)O)NC(=O)[C@@H]2CSCc3cc(cc(c3)CSC[C@H](NC(C)=O)C(=O)N[C@@H](Cc3ccc(O)cc3)C(=O)N[C@@H](CC(N)=O)C(=O)N[C@@H](CCC(=O)O)C(=O)N[C@@H](Cc3ccc(O)cc3)C(=O)NCC(=O)N2)CSC[C@@H](C(N)=O)NC1=O` [17-69-07-N057, Ac-(17-69-07) Tyr4] (Ac-CYNEYGCEDFYDIC-NH2; linker 1-7-14 via TBMB) yielded a Kd [2] of 1.78 ± 0.45 nM.

Compound `CC[C@H](C)[C@@H]1NC(=O)[C@H](CC(=O)O)NC(=O)[C@H](Cc2ccc(O)cc2)NC(=O)[C@H](Cc2ccccc2)NC(=O)[C@H](CC(=O)O)NC(=O)[C@H](CCC(=O)O)NC(=O)[C@@H]2CSCc3cc(cc(c3)CSC[C@H](NC(C)=O)C(=O)N[C@@H](Cc3ccc(O)cc3)C(=O)N[C@@H](CC(N)=O)C(=O)N[C@@H](CCC(=O)O)C(=O)N[C@@H](Cc3ccccc3)C(=O)N3CCC[C@@H]3C(=O)N2)CSC[C@@H](C(N)=O)NC1=O` [17-69-07-N059, Ac-(17-69-07) D-Pro5] (Ac-CYNEF[dP]CEDFYDIC-NH2; linker 1-7-14 via TBMB) has a Kd (Table 6, D-Alanine substitutions in first loop) of over 5000 nM.

In the case of `CC[C@H](C)[C@@H]1NC(=O)[C@H](CC(=O)O)NC(=O)[C@H](Cc2ccc(Br)cc2)NC(=O)[C@H](Cc2ccccc2)NC(=O)[C@H](CC(=O)O)NC(=O)[C@H](CCC(=O)O)NC(=O)[C@@H]2CSCc3cc(cc(c3)CSC[C@H](NC(C)=O)C(=O)N[C@@H](Cc3ccc(O)cc3)C(=O)N[C@@H](CC(N)=O)C(=O)N[C@@H](CCC(=O)O)C(=O)N[C@@H](Cc3ccccc3)C(=O)NCC(=O)N2)CSC[C@@H](C(N)=O)NC1=O` [17-69-07-N130, Ac-(17-69-07) 4BrPhe9] (Ac-CYNEFGCEDF[Phe(4-Br)]DIC-NH2; linker 1-7-14 via TBMB), the Kd [1] is reported as 2.45 ± 1.08 nM.

`CC[C@H](C)[C@@H]1NC(=O)[C@H](CC(=O)O)NC(=O)[C@H](Cc2ccc(O)cc2)NC(=O)[C@H](Cc2ccccc2)NC(=O)[C@H](CC(=O)O)NC(=O)[C@H](CCC(=O)O)NC(=O)[C@@H]2CSCc3cc(cc(c3)CSC[C@H](NC(C)=O)C(=O)N[C@@H](Cc3ccc(O)cc3)C(=O)N[C@@H](CC(N)=O)C(=O)N[C@@H](CCC(=O)O)C(=O)N[C@@H](Cc3ccc(Cl)c(Cl)c3)C(=O)NCC(=O)N2)CSC[C@@H](C(N)=O)NC1=O` [17-69-07-N137, Ac-(17-69-07) 3,4-DCPhe4] gave a Kd [2] of 1.85 ± 2.45 nM.

Work on `CC[C@H](C)[C@@H]1NC(=O)[C@H](CC(=O)O)NC(=O)[C@H](Cc2ccc(O)cc2)NC(=O)[C@H](Cc2ccccc2)NC(=O)[C@H](CC(=O)O)NC(=O)[C@H](CCC(=O)O)NC(=O)[C@@H]2CSCc3cc(cc(c3)CSC[C@@H](C(=O)N[C@@H](C)C(N)=O)NC1=O)CSC[C@H](NC(=O)[C@H](C)N)C(=O)N[C@@H](C(C)C)C(=O)N[C@@H](CC(N)=O)C(=O)N[C@@H](CCC(=O)O)C(=O)N[C@@H](Cc1ccccc1)C(=O)NCC(=O)N2` [17-69-03-N001, A-(17-69-03)-A] (H-ACVNEFGCEDFYDICA-NH2; linker 2-8-15 via TBMB) yielded a Kd [3] of 16.7 nM.

Compound `CC[C@H](C)[C@@H]1NC(=O)[C@H](CC(=O)O)NC(=O)[C@H](Cc2ccc(O)cc2)NC(=O)[C@H](Cc2ccccc2)NC(=O)[C@H](CC(=O)O)NC(=O)[C@H](CCC(=O)O)NC(=O)[C@@H]2CSCc3cc(cc(c3)CSC[C@H](NC(C)=O)C(=O)N[C@@H](Cc3ccc(O)cc3)C(=O)N[C@@H](CC(N)=O)C(=O)N[C@@H](CCC(=O)O)C(=O)N[C@@H](CCc3ccccc3)C(=O)NCC(=O)N2)CSC[C@@H](C(N)=O)NC1=O` [17-69-07-N140, Ac-(17-69-07) HPhe4] has a Kd [2] of 43.3 nM.

With `CC[C@H](C)[C@@H]1NC(=O)[C@H](CC(=O)O)NC(=O)[C@H](Cc2ccc(O)cc2)NC(=O)[C@H](Cc2ccccc2)NC(=O)[C@H](CC(=O)O)NC(=O)[C@H](CCC(=O)O)NC(=O)[C@@H]2CSCc3cc(cc(c3)CSC[C@@H](C(=O)N[C@@H](C)C(N)=O)NC1=O)CSC[C@H](NC(=O)[C@H](C)N)C(=O)N[C@@H](Cc1ccc(O)cc1)C(=O)N[C@@H](CC(N)=O)C(=O)N[C@@H](CCC(=O)O)C(=O)N[C@@H](Cc1ccccc1)C(=O)NCC(=O)N2` [17-69-07-N001, A-(17-69-07)-A] the Kd (Table 3, Competition, tracer A-(17-69-12)-A-Sar6-K(Fluorescein)) was 1.65 ± 0.29 nM.

For `CC[C@H](C)[C@@H]1NC(=O)[C@H](CC(=O)O)NC(=O)[C@H](Cc2ccc(O)cc2)NC(=O)[C@H](Cc2ccccc2)NC(=O)[C@H](CC(=O)O)NC(=O)[C@H](CCC(=O)O)NC(=O)[C@@H]2CSCc3cc(cc(c3)CSC[C@@H](C(=O)N[C@@H](C)C(N)=O)NC1=O)CSC[C@H](NC(=O)[C@H](C)N)C(=O)N[C@@H](Cc1ccccc1)C(=O)NCC(=O)N[C@@H](CCC(=O)O)C(=O)N[C@@H](Cc1ccccc1)C(=O)NCC(=O)N2` [17-69-02-N001, A-(17-69-02)-A] (H-ACFGEFGCEDFYDICA-NH2; linker 2-8-15 via TBMB), the Kd [3] was 191 nM.

Compound `CC[C@H](C)[C@@H]1NC(=O)[C@H](CC(=O)O)NC(=O)[C@H](Cc2ccc(O)cc2)NC(=O)[C@H](Cc2ccccc2)NC(=O)[C@H](CC(=O)O)NC(=O)[C@H](CCC(=O)O)NC(=O)[C@@H]2CSCc3cc(cc(c3)CSC[C@H](NC(C)=O)C(=O)N[C@@H](Cc3ccc(O)cc3)C(=O)N[C@@H](CC(N)=O)C(=O)N[C@@H](CCC(=O)O)C(=O)N[C@@H](CC3CCCCC3)C(=O)NCC(=O)N2)CSC[C@@H](C(N)=O)NC1=O` [17-69-07-N139, Ac-(17-69-07) Cha4] (Ac-CYNE[Cha]GCEDFYDIC-NH2; linker 1-7-14 via TBMB) has a Kd [2] of 362 nM.

`CC[C@H](C)[C@@H]1NC(=O)[C@H](CC(=O)O)NC(=O)[C@H](Cc2ccc(O)cc2)NC(=O)[C@H](Cc2ccccc2)NC(=O)[C@H](CC(=O)O)NC(=O)[C@H](CCC(=O)O)NC(=O)[C@@H]2CSCc3cc(cc(c3)CSC[C@H](NC(C)=O)C(=O)N[C@@H](Cc3ccc(O)cc3)C(=O)N[C@@H](CC(N)=O)C(=O)N[C@@H](CCC(=O)O)C(=O)N[C@@H](Cc3cccc4ccccc34)C(=O)NCC(=O)N2)CSC[C@@H](C(N)=O)NC1=O` [17-69-07-N067, Ac-(17-69-07) 1NAl4] (Ac-CYNE[1Nal]GCEDFYDIC-NH2; linker 1-7-14 via TBMB) gave a Kd [2] of 0.36 ± 0.12 nM.

`CC[C@H](C)[C@@H]1NC(=O)[C@H](CC(=O)O)NC(=O)[C@H](Cc2ccc(O)cc2)NC(=O)[C@H](Cc2ccccc2)NC(=O)[C@H](CC(=O)O)NC(=O)[C@H](CCC(=O)O)NC(=O)[C@@H]2CSCc3cc(cc(c3)CSC[C@H](NC(=O)[C@H](C)NC(=O)CN3CCN(CC(=O)O)CCN(CC(=O)O)CCN(CC(=O)O)CC3)C(=O)N[C@@H](Cc3ccc(O)cc3)C(=O)N[C@@H](CC(N)=O)C(=O)N[C@@H](CCC(=O)O)C(=O)N[C@@H](Cc3ccccc3)C(=O)NCC(=O)N2)CSC[C@@H](C(N)=O)NC1=O` [17-69-07-N147, DOTA[Lu]-A-(17-69-07)] showed a Kd (Table 15, DOTA-linked peptides) of 0.95 ± 0.5 nM.

In the case of `CC[C@H](C)[C@@H]1NC(=O)[C@H](CC(=O)O)NC(=O)[C@H](Cc2ccc(O)cc2)NC(=O)[C@H](Cc2ccccc2)NC(=O)[C@H](CC(=O)O)NC(=O)[C@H](CCC(=O)O)NC(=O)[C@@H]2CSCc3cc(cc(c3)CSC[C@H](NC(C)=O)C(=O)N[C@@H](Cc3ccc(O)cc3)C(=O)N[C@@H](CC(N)=O)C(=O)N[C@@H](CCC(=O)O)C(=O)N[C@@H](Cc3ccc4ccccc4c3)C(=O)NCC(=O)N2)CSC[C@@H](C(N)=O)NC1=O` [17-69-07-N068, Ac-(17-69-07) 2NAl4] (Ac-CYNE[2Nal]GCEDFYDIC-NH2; linker 1-7-14 via TBMB), the Kd [2] is reported as 0.7 ± 0.19 nM.
